Reference: patent publication US9079900B2, “Methods of synthesis and purification of heteroaryl compounds” (SIGNAL PHARMACEUTICALS, LLC, priority 2009, dated 2015)

| melting point [°C] | SMILES |
| --- | --- |
| 239 to 241 | CC(C)(O)c1ccc(-c2cnc3c(n2)N(CCN2CCOCC2)CC(=O)N3)cn1 [Example 5, 6-(6-(2-Hydroxypropan-2-yl)pyridin-3-yl)-4-(2-morpholinoethyl)-3,4-dihydropyrazino[2,3-b]pyrazin-2(1H)-one] |
| 255 to 258 | O=C1CNc2ncc(-c3cnc4[nH]ccc4c3)nc2N1CCC1CCOCC1 [Example 15, 7-(1H-Pyrrolo[2,3-b]pyridin-5-yl)-1-(2-(tetrahydro-2h-pyran-4-yl)ethyl)-3,4-dihydropyrazino[2,3-b]pyrazin-2(1H)-one] |
